{
  "source": "patent US12465605B2",
  "about": "“Methods and materials for gender-dependent treatment of cardiovascular dysfunction” (Mayo Foundation for Medical Education and Research, priority 2019, dated 2025)",
  "format_in_all_cases": "cell-based",
  "key": {"[1]": {"tested_on": "Osterix (BMP target gene)", "experiment": "Osterix mRNA in aortic valve interstitial cells treated with sGC agonists", "conditions": "for Osterix expression: 24 hours", "protocol": "(§1) In vitro cell culture studies: Aortic valve interstitial cells were isolated using an outgrowth method, and were expanded in DMEM/F-10 medium with 10% FBS and studied in passages 2-10. Cells were treated for 24 hours under each experimental condition, at which point mRNA was harvested using lysis buffer. After mRNA isolation and reverse transcription, gene expression was measured using quantitative real-time RT-PCR and Taqman primers. Changes in gene expression were assessed by the ddCt method and expressed as fold-change normalized to control conditions.\nIn vitro studies were conducted in aortic valve interstitial cells to determine the effects of several sGC agonists on mRNA levels of Osterix, a BMP target gene. Cells were treated with nelociguat, vericiguat, lificiguat, or BAY41-8543, and Osterix mRNA levels were determined. Nelociguat and BAY41-8543 were used at concentrations ranging from 1 nM to 10 μM, while vericiguat and lificiguat were used at concentrations ranging from 1 nM to 1 μM."}, "[2]": {"tested_on": "LPA-induced BMP signaling", "experiment": "LPA-induced BMP signaling (Osterix mRNA) in aortic valve interstitial cells", "conditions": "treatment with 18:0 lyso-PA alone", "protocol": "as §1\nAdditional studies were conducted in aortic valve interstitial cells to examine the effects of ataciguat on LPA-induced BMP signaling and BMP target gene expression. Cells were treated with 18:0 lyso-PA, with or without ataciguat, and Osterix mRNA levels were determined."}, "sGC": {"target": "T1, sGC (Mus musculus, UniProt O54865)", "T1 construct": "endogenous in cells; host or cells: primary mouse aortic valve interstitial cells (mVICs) from C57BL6/J mice", "T1 sequence (O54865 1-620)": "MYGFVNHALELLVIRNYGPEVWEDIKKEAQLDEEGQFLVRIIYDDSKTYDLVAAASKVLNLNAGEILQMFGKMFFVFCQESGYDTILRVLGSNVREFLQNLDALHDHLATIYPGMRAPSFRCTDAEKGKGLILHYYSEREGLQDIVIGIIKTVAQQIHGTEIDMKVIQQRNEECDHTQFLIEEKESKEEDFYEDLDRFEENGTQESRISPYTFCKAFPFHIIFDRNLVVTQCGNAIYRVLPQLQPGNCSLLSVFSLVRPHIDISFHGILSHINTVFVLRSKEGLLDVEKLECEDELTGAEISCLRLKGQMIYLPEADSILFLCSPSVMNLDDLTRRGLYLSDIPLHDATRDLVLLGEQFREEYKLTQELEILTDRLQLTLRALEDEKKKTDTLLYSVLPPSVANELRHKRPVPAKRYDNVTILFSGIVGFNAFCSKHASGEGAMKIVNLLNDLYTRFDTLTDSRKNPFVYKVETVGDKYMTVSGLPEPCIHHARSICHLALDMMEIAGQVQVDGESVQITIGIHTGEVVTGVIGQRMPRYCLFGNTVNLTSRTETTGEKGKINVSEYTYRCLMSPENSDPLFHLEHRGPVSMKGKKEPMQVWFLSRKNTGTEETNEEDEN", "T1 sequence (Q9ERL9 1-691 partner)": "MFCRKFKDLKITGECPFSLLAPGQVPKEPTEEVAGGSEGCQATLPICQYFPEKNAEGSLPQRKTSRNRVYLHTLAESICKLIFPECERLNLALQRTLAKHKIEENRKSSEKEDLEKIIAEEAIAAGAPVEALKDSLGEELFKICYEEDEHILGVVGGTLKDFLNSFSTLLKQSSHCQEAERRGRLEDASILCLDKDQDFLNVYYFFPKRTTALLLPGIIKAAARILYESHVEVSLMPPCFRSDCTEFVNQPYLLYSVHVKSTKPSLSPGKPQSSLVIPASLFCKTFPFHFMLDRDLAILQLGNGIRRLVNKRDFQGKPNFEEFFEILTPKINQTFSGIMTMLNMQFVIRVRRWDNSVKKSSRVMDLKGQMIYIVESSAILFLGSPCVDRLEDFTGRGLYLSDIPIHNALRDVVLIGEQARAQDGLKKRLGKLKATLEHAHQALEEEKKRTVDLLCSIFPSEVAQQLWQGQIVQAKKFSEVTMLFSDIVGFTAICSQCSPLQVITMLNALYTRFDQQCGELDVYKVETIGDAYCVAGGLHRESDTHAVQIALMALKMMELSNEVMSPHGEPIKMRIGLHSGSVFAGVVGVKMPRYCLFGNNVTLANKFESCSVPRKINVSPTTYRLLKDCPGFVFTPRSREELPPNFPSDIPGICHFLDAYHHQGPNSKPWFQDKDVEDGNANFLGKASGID", "experiment": "sGC signaling (phospho-VASP239) in mouse aortic valve interstitial cells", "conditions": "otherwise naïve mVICs, vs vehicle-treated cells", "protocol": "To confirm that ataciguat effectively activated sGC in cells, mouse aortic valve interstitial cells (mVICs) were isolated from C57BL6/J mice treated with ataciguat or other sGC agonists as internal controls. […] To determine whether ataciguat could attenuate signaling cascades central to the initiation and progression of valve calcification in vitro, cells were treated with BMP2 with or without ataciguat. In these studies, ataciguat reduced phospho-SMAD1/5/8 signaling (e.g., canonical BMP signaling) as well as expression of osteogenic genes induced by BMP2 (e.g., osterix)."}},
  "data": [
    {"compound": "COC(=O)Nc1c(N)nc(-c2nn(Cc3ccccc3F)c3ncccc23)nc1N", "note": "[nelociguat, methyl (4,6-diamino-2-(1-(2-fluorobenzyl)-1H-pyrazolo[3,4-b]pyridin-3-yl)pyrimidin-5-yl)carbamate]", "values": [
      {"measurement": "concentration that may be cytotoxic", "setting": "[1]; suggested from loss of effect at the highest concentration", "value": "≥ 10", "unit": "µM"}
    ]},
    {"compound": "OCc1ccc(-c2nn(Cc3ccccc3)c3ccccc23)o1", "note": "[lificiguat]", "values": [
      {"measurement": "Osterix expression", "setting": "[1]; tested 1 nM to 1 μM", "value": "lose efficacy at higher concentrations"}
    ]},
    {"compound": "Nc1nc(-c2nn(Cc3ccccc3F)c3ncccc23)nc(N)c1N1CCOCC1", "note": "[BAY41-8543, 2-[1-[(2-fluorophenyl)methyl]-1H-pyrazolo[3,4-b]pyridin-3-yl]-5-(4-morpholinyl)-4,6-pyrimidinediamine]", "values": [
      {"measurement": "Osterix expression", "setting": "[1]; at 10 μM", "value": "highly efficacious"},
      {"measurement": "Osterix expression", "setting": "[1]; tested 1 nM to 10 μM", "value": "dose-dependent reductions"}
    ]},
    {"compound": "COC(=O)Nc1c(N)nc(-c2nn(Cc3ccccc3F)c3ncc(F)cc23)nc1N", "note": "[vericiguat, methyl (4,6-diamino-2-(5-fluoro-1-(2-fluorobenzyl)-1H-pyrazolo[3,4-b]pyridin-3-yl)pyrimidin-5-yl)carbamate]", "values": [
      {"measurement": "Osterix expression", "setting": "[1]; tested 1 nM to 1 μM", "value": "only at the highest dose tested"}
    ]},
    {"compound": "lysophosphatidic acid [18:0 lyso-PA]", "values": [
      {"measurement": "expression of Osterix", "setting": "[2]", "value": "increased expression"}
    ]},
    {"compound": "CCN(CC)/[N+]([O-])=N/O.CCNCC", "note": "[DEA-NONOATE]", "values": [
      {"measurement": "sGC-dependent signaling (phospho-VASP^239 levels)", "setting": "sGC", "value": "increased phospho-VASP^239 levels to a similar extent"}
    ]}
  ]
}
